For data set [1], the target named is T1, human calcitonin receptor (hCTR2) (Homo sapiens, UniProt P30988).
T1 construct: expressed in transfected cells
T1 sequence (P30988 25-474): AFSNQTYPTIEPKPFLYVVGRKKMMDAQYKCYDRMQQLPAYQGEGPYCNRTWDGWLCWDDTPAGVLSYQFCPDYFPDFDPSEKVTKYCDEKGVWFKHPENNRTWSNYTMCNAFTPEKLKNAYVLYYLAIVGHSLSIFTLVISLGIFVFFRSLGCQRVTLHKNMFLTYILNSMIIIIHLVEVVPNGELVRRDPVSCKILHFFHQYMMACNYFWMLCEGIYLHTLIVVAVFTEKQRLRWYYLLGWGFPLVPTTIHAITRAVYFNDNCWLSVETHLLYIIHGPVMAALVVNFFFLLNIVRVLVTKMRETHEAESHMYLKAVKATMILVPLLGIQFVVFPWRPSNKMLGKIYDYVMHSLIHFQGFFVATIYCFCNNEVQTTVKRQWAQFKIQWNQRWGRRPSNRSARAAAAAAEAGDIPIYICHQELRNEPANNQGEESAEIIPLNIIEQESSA
The experiment in a line: hCTR2 assay: induction of cAMP (AlphaScreen cAMP Assay kit) in COS7 cells expressing hCTR2. It is filed as cell-based. The essentials: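 Functional agonism is measured as cAMP accumulation in a COS7 line stably transfected with hCTR2, lacking endogenous RAMPs. Peptides act for 15 min at 37° C with IBMX present, and curves are fitted with a 4-parameter logistic model.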

Data set [2] is described as follows: Solubility assessment (turbidity absorbance at 325 nm). In kind it is physicochemical. Conditions: stock 2 mg/ml diluted 1:1, ambient temperature (typically 25°C), n=1; for Solubility, Acetate buffer pH 4: 100 mM acetate buffer pH 4.0; for Solubility, Acetate buffer pH 5: 100 mM acetate buffer pH 5.0; for Solubility, Histidine buffer pH 6: 100 mM histidine buffer pH 6.0; for Solubility, Histidine buffer pH 7: 100 mM histidine buffer pH 7.0; for Solubility, Phosphate buffer pH 6: 100 mM phosphate buffer pH 6.0; for Solubility, Phosphate buffer pH 7: 100 mM phosphate buffer pH 7.0; for Solubility, Phosphate buffer pH 7.5: 100 mM phosphate buffer pH7.5. Summed up:
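Stock 2 mg/ml peptide, H2O/HCl pH 2.5; 1:1 into 100 mM buffers: acetate pH 4.0/5.0, His pH 6.0/7.0, phosphate pH 6.0/7.0/7.5. A280 + A325, ~25°C, n=1. Soluble ≥ 1 mg/ml if A325 ≤ 0.02.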

Data set [3] deals with T2, human amylin receptor 3 (hAMYR3) consisting of hCTR2 co-expressed with human Receptor Activity Modifying Protein 3 (hRAMP3) (Homo sapiens, UniProt O60896+P30988).
T2 construct: expressed in transfected cells
T2 sequence (P30988 25-474): T1 sequence (P30988 25-474)
T2 sequence (O60896 24-148 partner): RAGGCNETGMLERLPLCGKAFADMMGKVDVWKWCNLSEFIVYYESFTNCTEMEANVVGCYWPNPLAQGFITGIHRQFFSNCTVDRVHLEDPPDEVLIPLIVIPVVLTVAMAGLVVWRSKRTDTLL
The experiment in a line: hAMYR3 assay: induction of cAMP (AlphaScreen cAMP Assay kit) in COS7 cells expressing hAMYR3. It is filed as cell-based. The essentials:
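Stable COS7 clone co-expressing hCTR2 and hRAMP3, stimulated 15 min at 37° C with increasing peptide in Tyrode buffer pH 7.4 with 100 µM IBMX and 0.1% casein. cAMP measured by AlphaScreen after lysis; EC50 and % efficacy versus pramlintide from 4PL fit.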
(In general: Bead proximity is the source of the signal in Alpha formats.)

Setting [4] is: cAMP induction in COS7 cells expressing hCTR2, average of a minimum of 3 determinations, read-out: hCTR2 EC50.
Setting [5] is: cAMP induction in COS7 cells expressing hAMYR3, average of a minimum of 3 determinations, read-out: hAMY R3 EC50.

Where two headings read alike, the source gives them in different places. Numbered stars: 1 amine (or outer) side, 2 acyl side, 3 side chain; on linkers, the order of the positions; unused ones are H or OH. Bridge positions count the residues as written; N and C are the ends. Square brackets hold non-standard residues; d marks the D form. Peptide text beside a SMILES is read from it. * marks the point of attachment. C20 diacid = O=C(O)CCCCCCCCCCCCCCCCCCC(=O)*; γGlu = O=C(O)[C@H](CCC(=O)[*:2])N[*:1]; Hyp = O=C(O)[C@@H]1C[C@@H](O)CN1; NMeI = CC[C@H](C)[C@H](NC)C(=O)O; Sar = CNCC(=O)O

A word on the EC50: it is the concentration giving half of the maximal effect. As for `CC[C@H](C)[C@@H](C(=O)N[C@@H](CC(C)C)C(=O)N[C@@H](CO)C(=O)N[C@@H](CO)C(=O)N[C@H](C(=O)N[C@@H](CCC(=O)O)C(=O)N[C@H](C(=O)NCC(=O)N[C@@H](CO)C(=O)N[C@@H](CCC(=O)O)C(=O)N[C@H](C(=O)N1CCC[C@H]1C(N)=O)[C@@H](C)O)C(C)C)[C@@H](C)O)N(C)C(=O)CN(C)C(=O)[C@H](Cc1ccccc1)NC(=O)[C@H](CO)NC(=O)[C@H](CO)NC(=O)[C@H](CO)NC(=O)[C@H](CO)NC(=O)[C@H](CCCNC(=N)N)NC(=O)[C@H](Cc1c[nH]cn1)NC(=O)[C@H](CC(C)C)NC(=O)[C@H](Cc1ccccc1)NC(=O)[C@H](CCC(=O)O)NC(=O)[C@H](C)NC(=O)[C@H](CC(C)C)NC(=O)[C@H](CCCNC(=N)N)NC(=O)[C@H](CCC(N)=O)NC(=O)[C@@H](NC(=O)[C@H](C)NC(=O)[C@@H]1CSSC[C@H](NC(=O)[C@H](CCCNC(=N)N)NC(=O)CC[C@H](NC(=O)CCCCCCCCCCCCCCCCCCC(=O)O)C(=O)O)C(=O)N[C@@H](CC(N)=O)C(=O)N[C@@H]([C@@H](C)O)C(=O)N[C@@H](C)C(=O)N[C@@H]([C@@H](C)O)C(=O)N1)[C@@H](C)O` [Compound 77, [19CD]-isoGlu-RC()NTATC()ATQRLAEFLHRSSSSF-Gly(Me)-Ile(Me)-LSSTEVGSETP-NH2] ({C20 diacid-γGlu}-RCNTATCATQRLAEFLHRSSSSF[Sar][NMeI]LSSTEVGSETP-NH2; disulfide 2-7), the EC50 in data set [1] (setting [4]) worked out at 0.17 nM. Also, in data set [2], the “Solubility, Acetate buffer pH 4” value was “SS (SS indicates solubility ≥ 1mg/ml)”; the “Solubility, Acetate buffer pH 5” value is recorded as “II (II indicates solubility ≤ 1 mg/ml)”; the “Solubility, Histidine buffer pH 6” value is “II (II indicates solubility ≤ 1 mg/ml)”; the “Solubility, Histidine buffer pH 7” value was “SS (SS indicates solubility ≥ 1mg/ml)”. Besides, in data set [2], the “Solubility, Phosphate buffer pH 6” value was “II (II indicates solubility ≤ 1 mg/ml)”; the “Solubility, Phosphate buffer pH 7” value was “SS (SS indicates solubility ≥ 1mg/ml)”; the “Solubility, Phosphate buffer pH 7.5” value is recorded as “SS (SS indicates solubility ≥ 1mg/ml)”. The concentration for a half-maximal effect (EC50) in data set [3] (setting [5]) is 0.24 nM.
For `CC[C@H](C)[C@@H](C(=O)N[C@@H](CC(C)C)C(=O)N[C@@H](CO)C(=O)N[C@@H](CO)C(=O)N[C@H](C(=O)N[C@@H](CC(N)=O)C(=O)N[C@H](C(=O)NCC(=O)N[C@@H](CO)C(=O)N[C@@H](CC(N)=O)C(=O)N[C@H](C(=O)N1CCC[C@H]1C(N)=O)[C@@H](C)O)C(C)C)[C@@H](C)O)N(C)C(=O)[C@H](C)NC(=O)CN(C)C(=O)[C@H](Cc1ccccc1)NC(=O)[C@H](CC(N)=O)NC(=O)[C@H](CC(N)=O)NC(=O)[C@H](CO)NC(=O)[C@H](CO)NC(=O)[C@H](CCCNC(=N)N)NC(=O)[C@H](Cc1c[nH]cn1)NC(=O)[C@H](CC(C)C)NC(=O)[C@H](Cc1ccccc1)NC(=O)[C@H](CCC(=O)O)NC(=O)[C@H](C)NC(=O)[C@H](CC(C)C)NC(=O)[C@H](CCCNC(=N)N)NC(=O)[C@H](CCC(N)=O)NC(=O)[C@@H](NC(=O)[C@H](C)NC(=O)[C@@H]1CSSC[C@H](NC(=O)[C@H](CCCNC(=N)N)NC(=O)[C@H](CCCCN)NC(=O)CC[C@H](NC(=O)CCCCCCCCCCCCCCCCCCC(=O)O)C(=O)O)C(=O)N[C@@H](CC(N)=O)C(=O)N[C@@H]([C@@H](C)O)C(=O)N[C@@H](C)C(=O)N[C@@H]([C@@H](C)O)C(=O)N1)[C@@H](C)O` [Compound 84, [19CD]-isoGlu-KRC()NTATC()ATQRLAEFLHRSSNNF-Gly(Me)-A-Ile(Me)-LSSTNVGSNTP-NH2] ({C20 diacid-γGlu}-KRCNTATCATQRLAEFLHRSSNNF[Sar]A[NMeI]LSSTNVGSNTP-NH2; disulfide 3-8), the EC50 in data set [1] is 0.11 nM. In addition, in data set [2], the “Solubility, Acetate buffer pH 4” value was “SS (SS indicates solubility ≥ 1mg/ml)”; the “Solubility, Acetate buffer pH 5” value was “SS (SS indicates solubility ≥ 1mg/ml)”; the “Solubility, Histidine buffer pH 6” value is reported as “SS (SS indicates solubility ≥ 1mg/ml)”; the “Solubility, Histidine buffer pH 7” value is reported as “SS (SS indicates solubility ≥ 1mg/ml)”. In addition, in data set [2], the “Solubility, Phosphate buffer pH 6” value was “SS (SS indicates solubility ≥ 1mg/ml)”; the “Solubility, Phosphate buffer pH 7” value was “SS (SS indicates solubility ≥ 1mg/ml)”; the “Solubility, Phosphate buffer pH 7.5” value is “SS (SS indicates solubility ≥ 1mg/ml)”. In addition, the 50% effective concentration (EC50) in data set [3] stood at 0.1 nM.
In the case of `CC[C@H](C)[C@@H](C(=O)N[C@@H](CC(C)C)C(=O)N[C@@H](CO)C(=O)N[C@@H](CO)C(=O)N[C@H](C(=O)N[C@@H](CCC(=O)O)C(=O)N[C@H](C(=O)NCC(=O)N[C@@H](CO)C(=O)N[C@@H](CCC(=O)O)C(=O)N[C@H](C(=O)N1C[C@H](O)C[C@H]1C(N)=O)[C@@H](C)O)C(C)C)[C@@H](C)O)N(C)C(=O)CN(C)C(=O)[C@H](Cc1ccccc1)NC(=O)[C@H](CO)NC(=O)[C@H](CO)NC(=O)[C@H](CO)NC(=O)[C@H](CO)NC(=O)[C@H](CCCNC(=N)N)NC(=O)[C@H](Cc1c[nH]cn1)NC(=O)[C@H](CC(C)C)NC(=O)[C@H](Cc1ccccc1)NC(=O)[C@H](CCC(=O)O)NC(=O)[C@H](C)NC(=O)[C@H](CC(C)C)NC(=O)[C@H](CCCNC(=N)N)NC(=O)[C@H](CCC(=O)O)NC(=O)[C@@H](NC(=O)[C@H](C)NC(=O)[C@@H]1CSSC[C@H](NC(=O)[C@H](CCCNC(=N)N)NC(=O)CC[C@H](NC(=O)CCCCCCCCCCCCCCCCCCC(=O)O)C(=O)O)C(=O)N[C@@H](CCC(=O)O)C(=O)N[C@@H]([C@@H](C)O)C(=O)N[C@@H](C)C(=O)N[C@@H]([C@@H](C)O)C(=O)N1)[C@@H](C)O` [Compound 171, [19CD]-isoGlu-RC()ETATC()ATERLAEFLHRSSSSF-Gly(Me)-Ile(Me)-LSSTEVGSET-Hyp-NH2] ({C20 diacid-γGlu}-RCETATCATERLAEFLHRSSSSF[Sar][NMeI]LSSTEVGSET[Hyp]-NH2; disulfide 2-7), the EC50 was 0.84 nM in data set [1] (setting [4]) and 0.54 nM in data set [3] (setting [5]).
Taken in the same sequence, the figures for `CC[C@H](C)[C@@H](C(=O)N[C@@H](CC(C)C)C(=O)N[C@@H](CO)C(=O)N[C@@H](CO)C(=O)N[C@H](C(=O)N[C@@H](CC(=O)O)C(=O)N[C@H](C(=O)NCC(=O)N[C@@H](CO)C(=O)N[C@@H](CC(=O)O)C(=O)N[C@H](C(=O)N1CCC[C@H]1C(N)=O)[C@@H](C)O)C(C)C)[C@@H](C)O)N(C)C(=O)[C@H](C)NC(=O)CN(C)C(=O)[C@H](Cc1ccccc1)NC(=O)[C@H](CO)NC(=O)[C@H](CO)NC(=O)[C@H](CO)NC(=O)[C@H](CO)NC(=O)[C@H](CCCNC(=N)N)NC(=O)[C@H](Cc1c[nH]cn1)NC(=O)[C@H](CC(C)C)NC(=O)[C@H](Cc1ccccc1)NC(=O)[C@H](CCC(=O)O)NC(=O)[C@H](C)NC(=O)[C@H](CC(C)C)NC(=O)[C@H](CCCNC(=N)N)NC(=O)[C@H](CCC(=O)O)NC(=O)[C@@H](NC(=O)[C@H](C)NC(=O)[C@@H]1CSSC[C@H](NC(=O)[C@H](CCCNC(=N)N)NC(=O)CC[C@H](NC(=O)CCCCCCCCCCCCCCCCCCC(=O)O)C(=O)O)C(=O)N2CCC[C@H]2C(=O)N[C@@H]([C@@H](C)O)C(=O)N[C@@H](C)C(=O)N[C@@H]([C@@H](C)O)C(=O)N1)[C@@H](C)O` [Compound 173, [19CD]-isoGlu-RC()PTATC()ATERLAEFLHRSSSSF-Gly(Me)-A-Ile(Me)-LSSTDVGSDTP-NH2] ({C20 diacid-γGlu}-RCPTATCATERLAEFLHRSSSSF[Sar]A[NMeI]LSSTDVGSDTP-NH2; disulfide 2-7) were 0.062 nM and 0.14 nM.

Source of the values: patent EP3046573B1, “AMYLIN ANALOGUES” (Zealand Pharma A/S, priority 2013, dated 2015).
